Results published in the supplement of paper PMC4862054.

What was measured:
Conditions in all cases: incubation time: 72 h
BT-474 [1] = experiment: normalised response (% of control), CellTox Green; higher = less cell death (100 = DMSO, 0 = benzethonium chloride kill control)
Outline: (§1)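 After 72 h with compound in 384-well plates, breast cancer cell lines seeded as 20 µl suspension were read for CellTox Green fluorescence at 485/520 nm. CellTiter-Glo luminescence was then read after 10 min at room temperature. Compound was present at 5 concentrations in 10-fold steps over a 10,000-fold range set per compound, and plates were normalised to 0.1 % DMSO (100) and a positive kill control (0). Values are normalised signals, each at a single concentration.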

BT-549 [2] = experiment: as above
Outline: as §1

CAL-120 [3] = experiment: as above
Outline: as §1

CAL-148 [4] = experiment: as above
Outline: as §1

CAL-51 [5] = experiment: as above
Outline: as §1

CAL-85-1 [6] = experiment: as above
Outline: as §1

DU-4475 [7] = experiment: as above
Outline: as §1

HCC1143 [8] = experiment: as above
Outline: as §1

HCC1599 [9] = experiment: as above
Outline: as §1

HCC1937 [10] = experiment: as above
Outline: as §1

Hs578T [11] = experiment: as above
Outline: as §1

MCF-10A [12] = experiment: as above
Outline: as §1

MDA-MB-231 [13] = experiment: as above
Outline: as §1

MDA-MB-436 [14] = experiment: as above
Outline: as §1

MDA-MB-468 [15] = experiment: as above
Outline: as §1

MFM-223 [16] = experiment: as above
Outline: as §1

BT-474 [17] = experiment: normalised response (% of control), CellTiter-Glo; higher = more viable cells (100 = DMSO, 0 = benzethonium chloride kill control)
Experimental: (§2)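 DSRT, 72 h incubation, CellTox Green / CellTiter-Glo readout. Signal is normalised to DMSO and benzethonium chloride controls. Value is the normalised response at the highest dose.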

BT-549 [18] = experiment: as above
Experimental: as §2

CAL-120 [19] = experiment: as above
Experimental: as §2

CAL-148 [20] = experiment: as above
Experimental: as §2

CAL-51 [21] = experiment: as above
Experimental: as §2

CAL-85-1 [22] = experiment: as above
Experimental: as §2

DU-4475 [23] = experiment: as above
Experimental: as §2

HCC1143 [24] = experiment: as above
Experimental: as §2

HCC1599 [25] = experiment: as above
Experimental: as §2

HCC1937 [26] = experiment: as above
Experimental: as §2

HDQ-P1 [27] = experiment: as above
Experimental: as §2

Hs578T [28] = experiment: as above
Experimental: as §2

MCF-10A [29] = experiment: as above
Experimental: as §2

MDA-MB-231 [30] = experiment: as above
Experimental: as §2

MDA-MB-436 [31] = experiment: as above
Experimental: as §2

MDA-MB-453 [32] = experiment: as above
Experimental: as §2

MDA-MB-468 [33] = experiment: as above
Experimental: as §2

MFM-223 [34] = experiment: as above
Experimental: as §2

SK-BR-3 = experiment: as above
Experimental: as §2

HDQ-P1 [35] = experiment: normalised response (% of control), CellTox Green; higher = less cell death (100 = DMSO, 0 = benzethonium chloride kill control)
Outline: as §1

MDA-MB-453 [36] = experiment: as above
Outline: as §1

Row | SMILES | normalised response (BT-474 [1]) [%] | normalised response (BT-549 [2]) [%] | normalised response (CAL-120 [3]) [%] | normalised response (CAL-148 [4]) [%] | normalised response (CAL-51 [5]) [%] | normalised response (CAL-85-1 [6]) [%] | normalised response (DU-4475 [7]) [%] | normalised response (HCC1143 [8]) [%] | normalised response (HCC1599 [9]) [%] | normalised response (HCC1937 [10]) [%] | normalised response (Hs578T [11]) [%] | normalised response (MCF-10A [12]) [%] | normalised response (MDA-MB-231 [13]) [%] | normalised response (MDA-MB-436 [14]) [%] | normalised response (MDA-MB-468 [15]) [%] | normalised response (MFM-223 [16]) [%] | normalised response (BT-474 [17]) [%] | normalised response (BT-549 [18]) [%] | normalised response (CAL-120 [19]) [%] | normalised response (CAL-148 [20]) [%] | normalised response (CAL-51 [21]) [%] | normalised response (CAL-85-1 [22]) [%] | normalised response (DU-4475 [23]) [%] | normalised response (HCC1143 [24]) [%] | normalised response (HCC1599 [25]) [%] | normalised response (HCC1937 [26]) [%] | normalised response (HDQ-P1 [27]) [%] | normalised response (Hs578T [28]) [%] | normalised response (MCF-10A [29]) [%] | normalised response (MDA-MB-231 [30]) [%] | normalised response (MDA-MB-436 [31]) [%] | normalised response (MDA-MB-453 [32]) [%] | normalised response (MDA-MB-468 [33]) [%] | normalised response (MFM-223 [34]) [%] | normalised response (SK-BR-3) [%] | normalised response (HDQ-P1 [35]) [%] | normalised response (MDA-MB-453 [36]) [%]
1 | O=C(O)CNC(=O)c1c(O)c2ccccc2n(Cc2ccccc2)c1=O [IOX-2] (50000 nM) | 102 | 73.6 | 101 | 101 | 84.3 | 105 | 97.8 | 104 | 102 | 91.5 | 113 | 107 | 100 | 67 | 133 | 103 | 85.9 | 86.4 | 95.3 | 97.8 | 71.1 | 93.9 | 98.3 | 92.6 | 97.3 | 98.2 | 91.1 | 103 | 102 | 85.1 | 62.9 | 103 | 92.2 | 98.2 | 94 | – | –
2 | CN(C)C(=N)NC(=N)N [Metformin] (100000 nM) | 91.1 | 76.3 | 94.6 | 98.1 | 86.8 | 125 | 90.3 | – | 76 | 95.3 | 52.6 | 89.2 | 69.3 | 93.3 | – | 96.3 | 95.5 | 99.3 | 108 | 104 | 82.5 | 104 | 79.1 | 93 | 108 | 86.8 | 95.4 | 92.6 | 75.6 | 91.2 | 102 | 89.9 | 86.1 | 90.3 | 80 | 99.2 | 90.5
3 | CN(Cc1cnc2nc(N)nc(N)c2n1)c1ccc(C(=O)N[C@@H](CCC(=O)O)C(=O)O)cc1 [Methotrexate] (50000 nM) | 93.8 | 103 | 102 | 105 | 114 | 64.1 | 99 | – | 101 | 106 | -70.6 | 103 | 92.3 | 42.9 | 77.6 | 103 | 23.6 | 92.2 | 21.7 | 107 | 68.2 | 49.6 | 92.3 | 84.4 | 52.4 | 31.5 | 53.7 | 19.5 | 105 | 29.1 | 77.1 | 96 | 100 | 101 | 72.5 | 112 | 65
4 | C=CCN(/C=C1/C(=O)O[C@H](COC)[C@@]2(C)C1=C(O)C(=O)C1=C2[C@H](OC(C)=O)C[C@]2(C)C(=O)CC[C@@H]12)CC=C [Sonolisib] (10000 nM) | 99.8 | 104 | 97.4 | – | 90.6 | 61.7 | 107 | 117 | 113 | 81.7 | 111 | 108 | 106 | 98.2 | – | 103 | 87.1 | 82.2 | 102 | 124 | 82.1 | 103 | 96.5 | 91.8 | 102 | 90.4 | 72.1 | 95.7 | 88.4 | 87.3 | 101 | 84.8 | 86 | 106 | 93.9 | 108 | 101
